Measurements reported in US20250092056A1, “URACIL DERIVATIVES HAVING VIRUS REPLICATION INHIBITORY ACTIVITY AND PHARMACEUTICAL COMPOSITION COMPRISING THE SAME” (Shionogi & Co., Ltd., priority 2022, published 2025).
Read-outs that look alike come from different tables or passages of the source.

Experiments:
[1] = biological target: Recombinant SARS-CoV-2 3CL Protease (Severe acute respiratory syndrome coronavirus 2 (2019-nCoV) (SARS-CoV-2), UniProt P0DTD1); test: biochemical; assay type: biochemical; details: 50% SARS-CoV-2 3CL protease inhibitory concentration; read-out: IC50
[2] = system: SARS-CoV-2; test: Cytopathic effect (CPE) suppression effect confirmation test using HEK293T/ACE2-TMPRSS2 cells; assay type: cell-based; details: Severe acute respiratory syndrome coronavirus 2, HEK-293T
[3] = 72 h, read-out: EC50 (50% SARS-CoV-2 infected cell death inhibitory concentration), class, HEK293T/ACE2-TMPRSS2 cells, CPE suppression, CellTiter-Glo 2.0 after 3 days culture
[4] = 72 h, HEK293T/ACE2-TMPRSS2 cells, CPE suppression, CellTiter-Glo 2.0 after 3 days culture, read-out: EC50 (50% SARS-CoV-2 infected cell death inhibitory concentration), class
[5] = 72 h, read-out: EC50 (50% SARS-CoV-2 infected cell death inhibitory concentration), HEK293T/ACE2-TMPRSS2 cells, CPE suppression, CellTiter-Glo 2.0 after 3 days culture

Compound | IC50 [1] | EC50 [2, 3] | EC50 [2, 4] | EC50 [2, 5] | EC50 ([2]; 50% SARS-CoV-2 infected cell death inhibitory concentration, HEK293T/ACE2-TMPRSS2 cells, read-out: EC50)
Cc1cncc(-n2c(=O)c(Cc3cc(F)c(F)c(F)c3)c(Cl)n(C(C)C#N)c2=O)c1 (racemic) [Compound I-046] | > 100 nM |  |  |  | 
Cc1cncc(-n2c(=O)c(Cc3cc(F)c(F)c(F)c3)c(-c3ccc(C)c(C)c3)n(C(F)C#N)c2=O)c1 (racemic) [Compound I-048] | > 100 nM | 1000 to 5000 nM |  |  | 
CC(C)(C)OC(=O)C(C#N)n1c(N2CCC(C(F)(F)F)CC2)c(-c2ccc(F)c(Cl)c2)c(=O)n(-c2cncc(Cl)c2)c1=O (racemic) [Compound I-050] | 10 to 100 nM |  | < 100 nM |  | 
N#CCn1c(N2CCC3(CNC(=O)C3)C2)c(-c2ccc(F)c(Cl)c2)c(=O)n(-c2cnc3cc(Cl)ccn23)c1=O (racemic) [Compound I-051] | 10 to 100 nM |  | 1000 to 5000 nM |  | 
Cc1cncc(-n2c(=O)c(Cc3cc(F)c(F)c(F)c3)c(N3CC4(CCOC4)C3)n(C(C)C#N)c2=O)c1 (racemic) [Compound I-054] | 10 to 100 nM |  | < 100 nM |  | 
Cc1cncc(-n2c(=O)c(Cc3cc(F)c(F)c(F)c3)c(-c3ccc(C)c(C)c3)n(C(C#N)C(=O)O)c2=O)c1 (racemic) [Compound I-056] | 10 to 100 nM |  | < 100 nM |  | 
Cc1cncc(-n2c(=O)c(Cc3cc(F)c(F)c(F)c3)c(-c3ccc(C)c(C)c3)n(C(C)C#N)c2=O)c1 (racemic) [Compound I-057] | 9.8 nM |  |  | 29 nM | 
N#CCn1c(N2CCC3(CCC(=O)N3)C2)c(-c2ccc(F)c(Cl)c2)c(=O)n(-c2cncc(Cl)c2)c1=O (racemic) [Compound I-061] | < 10 nM | 100 to 1000 nM |  |  | 
N#CCn1c(N2CC3CNC(=O)C3C2)c(-c2ccc(F)c(Cl)c2)c(=O)n(-c2cncc(Cl)c2)c1=O (racemic) [Compound I-062] | < 10 nM | < 100 nM |  |  | 
N#CCn1c(N2CCC3(CNC(=O)C3)C2)c(-c2ccc(F)c(Cl)c2)c(=O)n(-c2cncc(Cl)c2)c1=O (racemic) [Compound I-063] | < 10 nM | 100 to 1000 nM |  |  | 
Cc1cncc(-n2c(=O)c(-c3ccc(F)c(Cl)c3)c(N3CCC4(CCOC4)C3)n(CC#N)c2=O)c1 (racemic) [Compound I-070] | < 10 nM | < 100 nM |  |  | 
Cc1cncc(N2C(=O)N(CC#N)CC3(CCOc4ccc(Cl)cc43)C2=O)c1 (racemic) [Compound I-088] | 71 nM |  |  | 97.2 nM | 
Cc1cncc(-n2c(=O)c(Cc3cc(F)c(F)c(F)c3)c(N3CCC(C#N)C3)n(CC#N)c2=O)c1 (racemic) [Compound I-092] | 10 to 100 nM |  | < 100 nM |  | 
Cc1cncc(-n2c(=O)c(Cc3cc(F)c(F)c(F)c3)c(N3CCC4(CCC(=O)N4)C3)n(CC#N)c2=O)c1 (racemic) [Compound I-094] | 10 to 100 nM |  | 100 to 1000 nM |  | 
Cc1cncc(-n2c(=O)c(Cc3cc(F)c(F)c(F)c3)c(N3CCC4(C3)NC(=O)NC4=O)n(CC#N)c2=O)c1 (racemic) [Compound I-095] | 10 to 100 nM |  | 1000 to 5000 nM |  | 
Cc1cncc(-n2c(=O)c(Cc3cc(F)c(F)c(F)c3)c(N3CCCC(C(F)(F)F)C3)n(CC#N)c2=O)c1 (racemic) [Compound I-097] | < 10 nM | < 100 nM |  |  | 
Cc1cncc(-n2c(=O)c(Cc3cc(F)c(F)c(F)c3)c(N3CCC(C(N)=O)C3)n(CC#N)c2=O)c1 (racemic) [Compound I-100] | < 10 nM | < 100 nM |  |  | 
COC1CCN(c2c(Cc3cc(F)c(F)c(F)c3)c(=O)n(-c3cncc(C)c3)c(=O)n2CC#N)C1 (racemic) [Compound I-102] | < 10 nM | < 100 nM |  |  | 
Cc1cncc(-n2c(=O)c(Cc3cc(F)c(F)c(F)c3)c(N3CC4CC(F)(F)C4C3)n(CC#N)c2=O)c1 (racemic) [Compound I-103] | < 10 nM | < 100 nM |  |  | 
Cc1cncc(-n2c(=O)c(Cc3cc(F)c(F)c(F)c3)c(N3CCC(C(F)F)C3)n(CC#N)c2=O)c1 (racemic) [Compound I-107] | < 10 nM | < 100 nM |  |  | 
Cc1cncc(-n2c(=O)c(Cc3cc(F)c(F)c(F)c3)c(N3CCC(S(N)(=O)=O)C3)n(CC#N)c2=O)c1 (racemic) [Compound I-108] | < 10 nM | 100 to 1000 nM |  |  | 
Cc1cncc(-n2c(=O)c(Cc3cc(F)c(F)c(F)c3)c(N3CCC4(CCC(O)C4)C3)n(CC#N)c2=O)c1 (racemic) [Compound I-110] | < 10 nM | < 100 nM |  |  | 
Cc1cncc(-n2c(=O)c(Cc3cc(F)c(F)c(F)c3)c(N3CCC(C(F)(F)F)C3)n(CC#N)c2=O)c1 (racemic) [Compound I-113] | < 10 nM | < 100 nM |  |  | 
Cc1cncc(-n2c(=O)c(Cc3cc(F)c(F)c(F)c3)c(N3CCC(C)(F)C3)n(CC#N)c2=O)c1 (racemic) [Compound I-115] | < 10 nM | < 100 nM |  |  | 
N#CCn1c(N2Cc3ccccc3C2)c(-c2cccc(Cl)c2)c(=O)n(C2CCn3cnnc32)c1=O (racemic) [Compound I-121] | > 100 nM |  |  |  | 
N#CCn1c(N2Cc3ccccc3C2)c(Cc2cc(F)c(F)c(F)c2)c(=O)n(C2CCNC(=O)C2)c1=O (racemic) [Compound I-155] | > 100 nM | 1000 to 5000 nM |  |  | 
N#CCn1c(N2C[C@@H]3CC[C@H]2C3)c(-c2ccc(F)c(Cl)c2)c(=O)n(-c2cncc(Cl)c2)c1=O (racemic) [Compound I-267] | < 10 nM |  |  |  | < 100 nM
